Among the test systems are U251 CNS; ACHN renal; HL-60(TB) leukemia; A549 NSCLC; TK-10 renal; IGROV1 ovarian; EKVX NSCLC; SF-295 CNS; CAKI-1 renal; NCI-H522 lung.
Common to all, as to assay: growth of human tumour cells (NCI), 48 h

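Following 48 hours of exposure in 96-well plates, responses at five concentrations were used to interpolate endpoints linearly. GI50: concentration for 50% inhibition of growth. TGI: concentration producing complete growth inhibition.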

In the case of `NC(=O)c1c(OCc2c(F)cc(Br)cc2F)nsc1NC(=O)NCCCCN1CCCC1`, the GI50 with U251 CNS was 1.71 µM; with ACHN renal it was 1.18 µM; in the assay with HL-60(TB) leukemia, 2.4 µM; in the assay on A549 NSCLC it was 2.97 µM; in the assay on TK-10 renal, 2.06 µM; in the assay on IGROV1 ovarian, 0.327 µM. Besides, the GI50 was above 10 µM in the assay with EKVX NSCLC, 2.26 µM in the assay with SF-295 CNS, 2.49 µM in the assay with CAKI-1 renal and 1.83 µM in the assay with NCI-H522 lung. The TGI in the assay with U251 CNS was 5.51 µM; in the assay on ACHN renal, 5.25 µM; with HL-60(TB) leukemia, 4.68 µM; with A549 NSCLC it was above 10 µM; in the assay with TK-10 renal, 7.94 µM; in the assay on IGROV1 ovarian, 4.29 µM. In addition, the TGI was above 10 µM in the assay with EKVX NSCLC, above 10 µM with SF-295 CNS, above 10 µM in the assay with CAKI-1 renal and 5.32 µM in the assay on NCI-H522 lung.

Consider `CS(=O)(=O)c1ccc(C(F)(F)F)cc1NC(=O)Nc1cnc(Oc2ccc(-c3cc(Cl)cnc3N)cc2)nc1`, for which the GI50 in the assay on U251 CNS was 2.56 µM; with ACHN renal it was 1.98 µM; in the assay on HL-60(TB) leukemia, 2.63 µM; in the assay with A549 NSCLC, 3.07 µM; in the assay with TK-10 renal, 2.21 µM; with IGROV1 ovarian it was 1.73 µM. In addition, the GI50 with EKVX NSCLC was 2.57 µM; with SF-295 CNS it was 1.99 µM; with CAKI-1 renal, 2.98 µM; in the assay with NCI-H522 lung it was 2.23 µM. Moreover, the TGI was 12.3 µM in the assay on U251 CNS; 6.32 µM in the assay with ACHN renal; 5.75 µM in the assay with HL-60(TB) leukemia; above 32.1 µM with A549 NSCLC; 6.92 µM in the assay on TK-10 renal; 6.04 µM in the assay with IGROV1 ovarian. The TGI with EKVX NSCLC was above 37.5 µM; with SF-295 CNS, 5.71 µM; in the assay with CAKI-1 renal, 22.4 µM; with NCI-H522 lung, 6.64 µM.

As for `NC(C(=O)O)C(N)C(=O)O` (stereo not given), the TGI in the assay with U251 CNS, in the assay on ACHN renal, in the assay with HL-60(TB) leukemia, in the assay on A549 NSCLC, in the assay with TK-10 renal and in the assay on IGROV1 ovarian was above 100 µM each time. For the same molecule, the TGI with EKVX NSCLC, in the assay with SF-295 CNS, in the assay with CAKI-1 renal and in the assay with NCI-H522 lung was above 100 µM in each case.

For the molecule `N#Cc1ccc(-n2cnc(NC(=O)[C@H]3CCN(C#N)C3)c2)cc1`, the GI50 in the assay on U251 CNS is 3.29 µM; in the assay on ACHN renal it was 2.55 µM; with HL-60(TB) leukemia, 0.51 µM; in the assay on A549 NSCLC it was 3.15 µM; in the assay on TK-10 renal, 1.49 µM; in the assay on IGROV1 ovarian, 2.01 µM. Also, the GI50 in the assay on EKVX NSCLC is 2.38 µM; in the assay with SF-295 CNS, 2.79 µM; with CAKI-1 renal, 2.48 µM; in the assay on NCI-H522 lung, 0.567 µM. The TGI is above 56.7 µM in the assay with U251 CNS; above 100 µM in the assay with ACHN renal; 2.86 µM with HL-60(TB) leukemia; above 100 µM in the assay on A549 NSCLC; 7.83 µM in the assay on TK-10 renal; above 100 µM in the assay with IGROV1 ovarian. The TGI in the assay with EKVX NSCLC was 10.1 µM; in the assay on SF-295 CNS, above 66.3 µM; with CAKI-1 renal it was above 100 µM; in the assay with NCI-H522 lung, 4.43 µM.

Turning to `CNC(=O)OCc1nc(S(C)=O)n(C)c1COC(=O)NC` (stereo not given), the TGI with U251 CNS was above 100 µM; in the assay with ACHN renal, above 78.6 µM; in the assay with HL-60(TB) leukemia, above 100 µM; in the assay with A549 NSCLC, above 46.4 µM; in the assay with TK-10 renal it was above 100 µM; in the assay on IGROV1 ovarian, above 82.1 µM. In addition, the TGI in the assay on EKVX NSCLC is above 100 µM; with SF-295 CNS, above 100 µM; in the assay on CAKI-1 renal, above 93.8 µM; with NCI-H522 lung, above 100 µM.

Regarding `CSc1s[s+]c(SC)c1[O-]`, the TGI was 86.5 µM in the assay on U251 CNS; above 100 µM with ACHN renal; 47.1 µM in the assay with HL-60(TB) leukemia; above 100 µM in the assay on A549 NSCLC; above 100 µM with TK-10 renal; above 100 µM with IGROV1 ovarian. For the same molecule, the TGI in the assay on EKVX NSCLC is above 100 µM; in the assay on SF-295 CNS, above 100 µM; in the assay with CAKI-1 renal it was 53.6 µM; in the assay with NCI-H522 lung, 32.2 µM.

With `O=C1/C(=C\c2ccccc2)c2ccccc2N1Cc1ccccc1`, the TGI is 15.2 µM in the assay with U251 CNS; 25.1 µM in the assay on ACHN renal; above 31.6 µM with HL-60(TB) leukemia; 22.5 µM in the assay on A549 NSCLC; 17.4 µM in the assay on TK-10 renal; 16.5 µM in the assay with IGROV1 ovarian. The TGI is 17.1 µM in the assay on EKVX NSCLC, 16.2 µM with SF-295 CNS, 13.2 µM in the assay on CAKI-1 renal and 22 µM in the assay on NCI-H522 lung.

Consider `CCN(C)S(=O)(=O)Nc1cccc(Nc2ncnc3cc(NC(=O)CCl)ccc23)c1Cl`, for which the GI50 in the assay with U251 CNS is 0.611 µM; in the assay on ACHN renal, 3.38 µM; in the assay on HL-60(TB) leukemia, 4.74 µM; with A549 NSCLC, 6.18 µM; in the assay on TK-10 renal it was 4.64 µM; in the assay with IGROV1 ovarian it was 3.5 µM. For the same molecule, the GI50 in the assay on EKVX NSCLC is 3.9 µM; in the assay on SF-295 CNS, 3.5 µM; in the assay on CAKI-1 renal it was 3.15 µM; in the assay with NCI-H522 lung, 0.693 µM. In addition, the TGI with U251 CNS is 1.64 µM; with ACHN renal, 7.67 µM; in the assay with HL-60(TB) leukemia, 11.3 µM; with A549 NSCLC, 16.3 µM; in the assay with TK-10 renal it was 13.3 µM; in the assay on IGROV1 ovarian, 8.62 µM. In addition, the TGI in the assay on EKVX NSCLC was 13.6 µM; with SF-295 CNS, 7.4 µM; in the assay on CAKI-1 renal, 8.5 µM; in the assay on NCI-H522 lung, 2.03 µM.

As to `CCOC(=O)c1c(C)c2c(n1C)CSc1cc(S(=O)(=O)c3ccccc3)c(=O)[nH]c1-2`, the GI50 in the assay on U251 CNS was 28.4 µM; in the assay with ACHN renal, 26.3 µM; in the assay with HL-60(TB) leukemia, 25.2 µM; with A549 NSCLC, 30.2 µM; in the assay with TK-10 renal it was 34.4 µM; in the assay with IGROV1 ovarian it was 16.7 µM. The GI50 is 14.6 µM in the assay on EKVX NSCLC, 14 µM in the assay on SF-295 CNS, 21.1 µM in the assay on CAKI-1 renal and 25.4 µM in the assay on NCI-H522 lung. Also, the TGI in the assay with U251 CNS, in the assay with ACHN renal, in the assay with HL-60(TB) leukemia, in the assay with A549 NSCLC, in the assay with TK-10 renal and in the assay on IGROV1 ovarian was above 100 µM in each case. Besides, the TGI in the assay on EKVX NSCLC was 74.9 µM; in the assay on SF-295 CNS, 61.9 µM; in the assay on CAKI-1 renal, above 100 µM; with NCI-H522 lung it was above 100 µM.
